# Patent US20170010272A1, “RAPID PHENOTYPE TESTS FOR ANTI[…] SENSITIVITY AND RESISTANCE” (STC, UNM, priority 2014, published 2017)
# Where two headings read alike, the source gives them in different places.
# Legend:
# [1] = biological target: deazaflavin (F420) dependent nitroreductase (Ddn) (Mycobacterium tuberculosis, UniProt P9WP15); experiment: activation of nitroimidazoles to NO• by Ddn; format: biochemical; settings: for Ddn mediated production of ^15NO•: FIG. 4; for activation to NO• by Ddn: FIG. 2
# Sequence of deazaflavin (F420) dependent nitroreductase (Ddn) (P9WP15 whole entry): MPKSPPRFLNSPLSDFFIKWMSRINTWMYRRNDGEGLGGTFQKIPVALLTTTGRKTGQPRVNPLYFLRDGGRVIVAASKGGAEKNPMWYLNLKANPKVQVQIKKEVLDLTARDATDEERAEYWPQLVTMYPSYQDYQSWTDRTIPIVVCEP
# [2] = oral pyrazinamide, metabolite pyrazinoic acid formed by host hepatic microsomal deamidase, cited from earlier work
smiles,measurement,setting,value
O=[15N+]([O-])c1cn2c(n1)OC[C@@H](OCc1ccc(OC(F)(F)F)cc1)C2 [^15N-nitro-PA824],Ddn mediated production of ^15NO•,[1],Ddn mediated production of ^15NO•
C[C@]1(COc2ccc(N3CCC(Oc4ccc(OC(F)(F)F)cc4)CC3)cc2)Cn2cc([N+](=O)[O-])nc2O1 [OPC67683],activation to NO• by Ddn,[1],activation of PA824 and OPC67683 to NO• by Ddn
O=[N+]([O-])c1cn2c(n1)OC[C@@H](OCc1ccc(OC(F)(F)F)cc1)C2 [PA824],activation to NO• by Ddn,[1],activation of PA824 and OPC67683 to NO• by Ddn
"NC(=O)c1cnccn1 [PZA, pyrazinamide]",time of peak POA (metabolite) levels after oral dosage,[2],~6 h
same,time of peak POA (metabolite) levels after oral dosage,[2]; listed as pyrazinamide,around six
CC1(COc2ccc(N3CCC(Oc4ccc(OC(F)(F)F)cc4)CC3)cc2)Cn2cc([15N+](=O)[O-])nc2O1 (stereo not drawn) [^15N-nitro-OPC67683],Ddn mediated production of ^15NO•,[1],Ddn mediated production of ^15NO•
